This is an account of results in PMC9032695, “Self-Assembled Alkylated Polyamine Analogs as Supramolecular Anticancer Agents” (Molecules, 2022).

SMILES strings stand for the structures. Several values for one entry are separate records, joined by “and”; a condition that tells them apart may be missing. Identical values can stand only once. Where only a bound is given, the exact number is not on record here.

T1 sequence (Q9NWM0 whole entry): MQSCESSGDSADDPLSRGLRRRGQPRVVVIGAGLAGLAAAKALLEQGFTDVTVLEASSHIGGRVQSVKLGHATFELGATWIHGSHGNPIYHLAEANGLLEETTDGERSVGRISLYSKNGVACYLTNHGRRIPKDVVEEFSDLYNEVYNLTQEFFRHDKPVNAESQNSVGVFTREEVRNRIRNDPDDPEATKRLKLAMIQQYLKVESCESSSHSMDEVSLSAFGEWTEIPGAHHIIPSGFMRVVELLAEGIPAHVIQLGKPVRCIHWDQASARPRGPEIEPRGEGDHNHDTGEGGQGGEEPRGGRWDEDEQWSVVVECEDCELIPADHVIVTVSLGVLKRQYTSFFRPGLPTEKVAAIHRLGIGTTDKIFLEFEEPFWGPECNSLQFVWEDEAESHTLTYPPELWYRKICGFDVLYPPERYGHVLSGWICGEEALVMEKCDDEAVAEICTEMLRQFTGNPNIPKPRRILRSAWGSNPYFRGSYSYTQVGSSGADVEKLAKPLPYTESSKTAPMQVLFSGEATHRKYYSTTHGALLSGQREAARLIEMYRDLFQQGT

The subject of one series is HCT116 cells. Nature of the series: CellTiter-Blue cell viability assay, HCT116. The settings on record: Homo sapiens, HCT-116, 24 h incubation. In kind it is cell-based. Here is the method: (§1) The human non-small cell lung carcinoma cell lines A549 (ATCC CCL-185) were maintained in RPMI 1640 medium containing 9% bovine calf serum, penicillin, and streptomycin at 37 °C, 5% CO2. For all experiments, cells were seeded and allowed to attach overnight. The medium was then aspirated and replaced with that containing polyamine PG analogs at the indicated concentrations. Cells were incubated for the times indicated at 37 °C, 5% CO2. The HCT 116 (ATCC CCL-247) human colorectal carcinoma cell lines were grown in McCoy’s 5 A medium (Thermo Fischer Scientific, Waltham, MA, USA), supplemented with 10% FBS at 37 °C with 5% CO2 in a humidified chamber.
(§2) The cytotoxicity of the HPG analogs was evaluated in HCT116 and A549 cells by the Promega CellTiter Blue Cell viability assay. The cells were seeded in 96-well plates at a density of four thousand cells/well 24 h before the polyamine treatment. The original medium was replaced with serial dilutions of the PG analogs in a cell culture medium and incubated for another 24 h. The mixture of 100 μL cell culture medium and 20 μL CellTiter Blue reagent was added into each well after the removal of the media with polyamines. After 2 h of incubation, the fluorescence intensity [FI] was measured at λex/λem = 560/590 nm by a microplate reader (Molecular Devices, San Jose, CA, USA). The relative cell viability (%) was calculated as [FI]treated/[FI]untreated × 100. Polyamine concentration, causing a 50% decrease in the cell viability, was defined as IC50 and auto-calculated in GraphPad Prism 9.0.0 (Prism 9, San Diego, CA, USA) with the dose–response analysis.
Usually IC50 stands for the concentration needed to halve the response being measured. As for `CCCCCCCNCCCNC/C=C\CNCCCNCCCCCCC` [HPG-6, (Z)-N^1,N^1′-(but-2-ene-1,4-diyl)bis(N^3-heptylpropane-1,3-diamine)], the IC50 amounted to 3 µM.

`CCCCCCCCNCCCNC/C=C\CNCCCNCCCCCCCC` [HPG-7, (Z)-N^1,N^1′-(but-2-ene-1,4-diyl)bis(N^3-octylpropane-1,3-diamine)] had an IC50 of 1 µM.

For `CCCCCCCCCNCCCNC/C=C\CNCCCNCCCCCCCCC` [HPG-8, (Z)-N^1,N^1′-(but-2-ene-1,4-diyl)bis(N^3-nonylpropane-1,3-diamine)], the IC50 was less than 1 µM.

In the case of `CCNCCCNC/C=C\CNCCCNCC` [PG11047, (Z)-N^1,N^1′-(but-2-ene-1,4-diyl)bis(N^3-ethylpropane-1,3-diamine)], half-maximal inhibition (IC50) was put at 8 µM.

Another series has as its system small (NCI H82 and H69) and non-small (NCI A549 and H157) lung cancer cells.
Test: not given
More on the design: method as in PMID 18301893. The note with it: ref [9]; cited from earlier work.
Turning to `CCNCCCNC/C=C\CNCCCNCC` [PG11047, (Z)-N^1,N^1′-(but-2-ene-1,4-diyl)bis(N^3-ethylpropane-1,3-diamine)], the “growth inhibition of lung cancer cells in vitro” value is listed as “inhibits the growth”.

Tested on in the next series: not listed separately
As to the kind of experiment: TEM imaging of self-assembled nanoparticles. It counts as physicochemical.
Settings: not given
Here is the method: A 10 µL volume of nanoparticle dispersion was meticulously placed on a plasma-treated copper grid (carbon-coated). After 5 min, the excess volume of nanoparticles was absorbed by a regular filter paper. The grid was then stained with 2% phosphotungstic acid (6 µL) for 1 min, and, similarly, the excess staining solution was absorbed by a regular filter paper. The grid was then allowed to dry in air for another 5 min. The image was captured under an FEI-Tecnai G2 transmission electron microscope (Hillsboro, OR, USA) at 80 kV, equipped with an AMT digital imaging system (Woburn, MA, USA).
Consider `CCCCCCCNCCCNC/C=C\CNCCCNCCCCCCC` [HPG-6, (Z)-N^1,N^1′-(but-2-ene-1,4-diyl)bis(N^3-heptylpropane-1,3-diamine)], for which the “average size obtained from TEM” value is on record as 8 nm.

Consider `CCCCCCCCNCCCNC/C=C\CNCCCNCCCCCCCC` [HPG-7, (Z)-N^1,N^1′-(but-2-ene-1,4-diyl)bis(N^3-octylpropane-1,3-diamine)], for which the “average size obtained from TEM” value is 30 nm.

Tested on in another series: not listed separately
Nature of the series: Hydrodynamic size and zeta potential of self-assembled nanoparticles (DLS). The note with it: DLS, self-assembled in aqueous solution. In kind it is physicochemical. As to the method:
To achieve self-assembly, each sample was dispersed in aqueous solution under sonication (Branson Ultrasonic, working frequency […] at room temperature) for 30 min. Thereafter, the sample was allowed to undergo self-assembly by keeping it undisturbed for another 30 min. The size and surface zeta potential of the self-assembled nanoparticles were analyzed using a Brookhaven NanoBrook (Holtsville, NY, USA) Omni particle size and zeta potential analyzer, respectively.
`CCCCCCCNCCCNC/C=C\CNCCCNCCCCCCC` [HPG-6, (Z)-N^1,N^1′-(but-2-ene-1,4-diyl)bis(N^3-heptylpropane-1,3-diamine)] displayed a PDI of 0.17.

The molecule `CCCCCCCCNCCCNC/C=C\CNCCCNCCCCCCCC` [HPG-7, (Z)-N^1,N^1′-(but-2-ene-1,4-diyl)bis(N^3-octylpropane-1,3-diamine)] gave a PDI of 0.13.

In the case of `CCCCCCCCCNCCCNC/C=C\CNCCCNCCCCCCCCC` [HPG-8, (Z)-N^1,N^1′-(but-2-ene-1,4-diyl)bis(N^3-nonylpropane-1,3-diamine)], the PDI worked out at 0.17.

The same series, now with this note: hydrodynamic size by DLS, self-assembled in aqueous solution.
Take `CCCCCCCNCCCNC/C=C\CNCCCNCCCCCCC` [HPG-6, (Z)-N^1,N^1′-(but-2-ene-1,4-diyl)bis(N^3-heptylpropane-1,3-diamine)]: the “Particle Size” value is 225 nm and 225 ± 6 nm.

As for `CCCCCCCCNCCCNC/C=C\CNCCCNCCCCCCCC` [HPG-7, (Z)-N^1,N^1′-(but-2-ene-1,4-diyl)bis(N^3-octylpropane-1,3-diamine)], the “Particle Size” value stood at 318 ± 8 nm.

The series is the same for the next values; noted with them: self-assembled in aqueous solution.
Take `CCCCCCCNCCCNC/C=C\CNCCCNCCCCCCC` [HPG-6, (Z)-N^1,N^1′-(but-2-ene-1,4-diyl)bis(N^3-heptylpropane-1,3-diamine)]: the “Zeta Potential” value was 22 mV.

For `CCCCCCCCNCCCNC/C=C\CNCCCNCCCCCCCC` [HPG-7, (Z)-N^1,N^1′-(but-2-ene-1,4-diyl)bis(N^3-octylpropane-1,3-diamine)], the “Zeta Potential” value is on record as 11 mV.

As to `CCCCCCCCCNCCCNC/C=C\CNCCCNCCCCCCCCC` [HPG-8, (Z)-N^1,N^1′-(but-2-ene-1,4-diyl)bis(N^3-nonylpropane-1,3-diamine)], the “Zeta Potential” value is 17 mV.

In a further series the target is T1, purified recombinant human SMOX protein (Homo sapiens, UniProt Q9NWM0). Nature of the series: SMOX activity assay (luminol-based chemiluminescence). In kind it is biochemical. The note with it: purified recombinant human SMOX, pH 8.0, 37 °C. As to the method:
SMOX activity was measured using a chemiluminescent enzyme-based assay, detecting the formation of H2O2 in the presence of HPG analogs as the substrate, as described. To measure the activity of these polyamines against SMOX, the enzyme (300 ng) in 0.083 M glycine buffer (pH 8.0) and the inhibitor (0–250 µM) were added to the luminol-HRP master mix and incubated at 37 °C for 2 min. PG was then added to the reaction mixture at a final concentration of 250 µM, vortexed for 3 s, and chemiluminescence was integrated over 40 s. Data were averaged and normalized to the blank reaction (no inhibitor) as % SMOX activity. Inactivated SMOX served as a negative control and was accounted for in the calculations.
As to `CCCCCCCNCCCNC/C=C\CNCCCNCCCCCCC` [HPG-6, (Z)-N^1,N^1′-(but-2-ene-1,4-diyl)bis(N^3-heptylpropane-1,3-diamine)], the IC50 stood at 30 µM.

Turning to `CCCCCCCCNCCCNC/C=C\CNCCCNCCCCCCCC` [HPG-7, (Z)-N^1,N^1′-(but-2-ene-1,4-diyl)bis(N^3-octylpropane-1,3-diamine)], the IC50 is less than 10 µM.

Regarding `CCCCCCCCCNCCCNC/C=C\CNCCCNCCCCCCCCC` [HPG-8, (Z)-N^1,N^1′-(but-2-ene-1,4-diyl)bis(N^3-nonylpropane-1,3-diamine)], the IC50 was less than 10 µM.

The same series, now with this note: ratio of IC50 values.
On to `CCCCCCCCNCCCNC/C=C\CNCCCNCCCCCCCC` [HPG-7, (Z)-N^1,N^1′-(but-2-ene-1,4-diyl)bis(N^3-octylpropane-1,3-diamine)], for which the “fold activity compared to MDL72527, SMOX” value is “around nine-fold more active than MDL 72,527”.

Consider `CCCCCCCCCNCCCNC/C=C\CNCCCNCCCCCCCCC` [HPG-8, (Z)-N^1,N^1′-(but-2-ene-1,4-diyl)bis(N^3-nonylpropane-1,3-diamine)], for which the “fold activity compared to MDL72527, SMOX” value is reported as “around nine-fold more active than MDL 72,527”.

The subject of a further series is colon cancer cells.
Test: not given
More on the design: method as in PMID 19487545. The note with it: ref [10]; cited from earlier work.
Consider `CCNCCCNC/C=C\CNCCCNCC` [PG11047, (Z)-N^1,N^1′-(but-2-ene-1,4-diyl)bis(N^3-ethylpropane-1,3-diamine)], for which the “anticancer activity in colon cancer cells” value is reported as “broad spectrum of anticancer activity”.

For a further series, the target named is T1, purified recombinant human SMOX protein.
Test: not given
More on the design: method as in PMID 33173604. The note with it: purified enzyme; reference inhibitor; ref [21]; cited from earlier work.
Regarding `C=C=CCNCCCCNCC=C=C` [MDL72527], the IC50 was 90 µM.

Staying with this series, now noted: purified enzyme; reference inhibitor; ref [21]; listed as MDL 72,527; cited from earlier work.
Consider `C=C=CCNCCCCNCC=C=C` [MDL72527], for which the IC50 was roughly 90 µM.

The subject of the next series is A549 cells. As to the kind of experiment: CellTiter-Blue cell viability assay, A549. It counts as cell-based. The note with it: Homo sapiens, 24 h incubation. Here is the method: as §1, §2
The molecule `CCCCCCCNCCCNC/C=C\CNCCCNCCCCCCC` [HPG-6, (Z)-N^1,N^1′-(but-2-ene-1,4-diyl)bis(N^3-heptylpropane-1,3-diamine)] yielded an IC50 of 3 µM.

In the case of `CCCCCCCCNCCCNC/C=C\CNCCCNCCCCCCCC` [HPG-7, (Z)-N^1,N^1′-(but-2-ene-1,4-diyl)bis(N^3-octylpropane-1,3-diamine)], the IC50 was less than 1 µM.

Take `CCCCCCCCCNCCCNC/C=C\CNCCCNCCCCCCCCC` [HPG-8, (Z)-N^1,N^1′-(but-2-ene-1,4-diyl)bis(N^3-nonylpropane-1,3-diamine)]: it took 7 µM to reach half-maximal inhibition (IC50).

`CCNCCCNC/C=C\CNCCCNCC` [PG11047, (Z)-N^1,N^1′-(but-2-ene-1,4-diyl)bis(N^3-ethylpropane-1,3-diamine)] yielded an IC50 greater than 10 µM.

The subject of a further series is A549 xenograft.
Test: not given
More on the design: method as in PMID 17464296, PMID 18301893, PMID 19487545. The settings on record: in vivo A549 xenograft model; ref [1],[9],[10]; cited from earlier work.
Regarding `CCNCCCNC/C=C\CNCCCNCC` [PG11047, (Z)-N^1,N^1′-(but-2-ene-1,4-diyl)bis(N^3-ethylpropane-1,3-diamine)], the “progression of established tumors” value is on record as “significantly delay the progression of established tumors”.
